Test results as given in US20250186321A1, “FORMULATION USING AMINO ACID AND CARBOXYLIC ACID, ORGANIC SALT, AND COMPOSITION COMPRISING SAME AND USE THEREOF” (MIYOSHI OIL & FAT CO., LTD., priority 2021, published 2025).

Test: Appearance of formulation (state at 25° C.)
Type: physicochemical
Method: Formulations 1 to 427 shown in Tables 1A to 1D were prepared by the above-described method using the components (A) and (B) at the compounding molar ratios shown in the tables, and their states at 25° C. were observed.

[1] = 25° C., components (A) and (B) at the compounding molar ratio shown
[2] = Tables 1C-1 to 1D, compounding molar ratio (Component (A):Component (B)) 1:1

## CC(C)[C@H](N)C(=O)O.O=C(O)c1ccccc1 [Formulation 201]
[1]
  state at 25° C.: Solid

## CC(C)[C@H](N)C(=O)O.O=C1O[C@H]([C@@H](O)CO)C(O)=C1O [Formulation 202]
[1]
  state at 25° C.: Solid

## CC(C)[C@H](N)C(=O)O.O=C1O[C@H]([C@H](O)CO)C(O)=C1O [Formulation 203]
[1]
  state at 25° C.: Solid

## CC(C)C[C@H](N)C(=O)O.O=CO [Formulation 204]
[1]
  state at 25° C.: Solid

## CC(=O)O.CC(C)C[C@H](N)C(=O)O [Formulation 205]
[1]
  state at 25° C.: Solid

## CC(C)C[C@H](N)C(=O)O.CCC(=O)O [Formulation 206]
[1]
  state at 25° C.: Solid

## CC(C)C[C@H](N)C(=O)O.CCCCCC(=O)O [Formulation 207]
[1]
  state at 25° C.: Solid

## CC(C)C[C@H](N)C(=O)O.CCCC(=O)O [Formulation 208]
[1]
  state at 25° C.: Solid

## CC(C)C[C@H](N)C(=O)O.O=C(O)[C@H](O)[C@@H](O)[C@H](O)[C@H](O)CO [Formulation 209]
[1]
  state at 25° C.: Solid

## CC(C)C[C@H](N)C(=O)O.CC(O)C(=O)O [Formulation 210]
[1]
  state at 25° C.: Solid

## CC(C)C[C@H](N)C(=O)O.O=C(O)CCCCC(=O)O [Formulation 211]
[1]
  state at 25° C.: Solid

## CC(C)C[C@H](N)C(=O)O.O=C(O)CCC(=O)O [Formulation 212]
[1]
  state at 25° C.: Solid

## CC(C)C[C@H](N)C(=O)O.N[C@@H](CCC(=O)O)C(=O)O [Formulation 213]
[1]
  state at 25° C.: Solid

## CC(C)C[C@H](N)C(=O)O.O=C(O)/C=C/C(=O)O [Formulation 214]
[1]
  state at 25° C.: Solid

## CC(C)C[C@H](N)C(=O)O.O=C(O)C[C@H](O)C(=O)O [Formulation 215]
[1]
  state at 25° C.: Solid

## CC(C)C[C@H](N)C(=O)O.O=C(O)CC(O)(CC(=O)O)C(=O)O [Formulation 216]
[1]
  state at 25° C.: Solid

## CC(C)C[C@H](N)C(=O)O.O=C(O)C(O)C(O)C(=O)O (stereo not shown) [Formulation 217]
[1]
  state at 25° C.: Solid

## CC(C)C[C@H](N)C(=O)O.O=C(O)c1ccccc1 [Formulation 218]
[1]
  state at 25° C.: Solid

## CC(C)C[C@H](N)C(=O)O.O=C1O[C@H]([C@@H](O)CO)C(O)=C1O [Formulation 219]
[1]
  state at 25° C.: Solid

## CC[C@H](C)[C@H](N)C(=O)O.O=CO [Formulation 221]
[1]
  state at 25° C.: Solid

## CC(=O)O.CC[C@H](C)[C@H](N)C(=O)O [Formulation 222]
[1]
  state at 25° C.: Solid

## CCC(=O)O.CC[C@H](C)[C@H](N)C(=O)O [Formulation 223]
[1]
  state at 25° C.: Solid

## CCCCCC(=O)O.CC[C@H](C)[C@H](N)C(=O)O [Formulation 224]
[1]
  state at 25° C.: Solid

## CCCC(=O)O.CC[C@H](C)[C@H](N)C(=O)O [Formulation 225]
[1]
  state at 25° C.: Solid

## CC[C@H](C)[C@H](N)C(=O)O.O=C(O)[C@H](O)[C@@H](O)[C@H](O)[C@H](O)CO [Formulation 226]
[1]
  state at 25° C.: Solid

## CC(O)C(=O)O.CC[C@H](C)[C@H](N)C(=O)O [Formulation 227]
[1]
  state at 25° C.: Solid

## CC[C@H](C)[C@H](N)C(=O)O.O=C(O)CCCCC(=O)O [Formulation 228]
[1]
  state at 25° C.: Solid

## CC[C@H](C)[C@H](N)C(=O)O.O=C(O)CCC(=O)O [Formulation 229]
[1]
  state at 25° C.: Solid

## CC[C@H](C)[C@H](N)C(=O)O.N[C@@H](CCC(=O)O)C(=O)O [Formulation 230]
[1]
  state at 25° C.: Solid

## CC[C@H](C)[C@H](N)C(=O)O.O=C(O)/C=C/C(=O)O [Formulation 231]
[1]
  state at 25° C.: Solid

## CC[C@H](C)[C@H](N)C(=O)O.O=C(O)C[C@H](O)C(=O)O [Formulation 232]
[1]
  state at 25° C.: Solid

## CC[C@H](C)[C@H](N)C(=O)O.O=C(O)CC(O)(CC(=O)O)C(=O)O [Formulation 233]
[1]
  state at 25° C.: Solid

## CC[C@H](C)[C@H](N)C(=O)O.O=C(O)C(O)C(O)C(=O)O (stereo not shown) [Formulation 234]
[1]
  state at 25° C.: Solid

## CC[C@H](C)[C@H](N)C(=O)O.O=C(O)c1ccccc1 [Formulation 235]
[1]
  state at 25° C.: Solid

## CC[C@H](C)[C@H](N)C(=O)O.O=C1O[C@H]([C@@H](O)CO)C(O)=C1O [Formulation 236]
[1]
  state at 25° C.: Solid

## N[C@@H](CO)C(=O)O.O=CO [Formulation 238]
[1]
  state at 25° C.: Solid

## CC(=O)O.N[C@@H](CO)C(=O)O [Formulation 239]
[1]
  state at 25° C.: Solid

## CCC(=O)O.N[C@@H](CO)C(=O)O [Formulation 240]
[1]
  state at 25° C.: Solid

## CCCCCC(=O)O.N[C@@H](CO)C(=O)O [Formulation 241]
[1]
  state at 25° C.: Solid

## CCCC(=O)O.N[C@@H](CO)C(=O)O [Formulation 242]
[1]
  state at 25° C.: Solid

## CC(O)C(=O)O.N[C@@H](CO)C(=O)O [Formulation 244]
[1]
  state at 25° C.: Solid

## N[C@@H](CO)C(=O)O.O=C(O)CCCCC(=O)O [Formulation 245]
[1]
  state at 25° C.: Solid

## N[C@@H](CO)C(=O)O.O=C(O)CCC(=O)O [Formulation 246]
[1]
  state at 25° C.: Solid

## N[C@@H](CCC(=O)O)C(=O)O.N[C@@H](CO)C(=O)O [Formulation 247]
[1]
  state at 25° C.: Solid

## N[C@@H](CO)C(=O)O.O=C(O)/C=C/C(=O)O [Formulation 248]
[1]
  state at 25° C.: Solid

## N[C@@H](CO)C(=O)O.O=C(O)C(O)C(O)C(=O)O (stereo not shown) [Formulation 251]
[1]
  state at 25° C.: Solid

## N[C@@H](CO)C(=O)O.O=C(O)c1ccccc1 [Formulation 252]
[1]
  state at 25° C.: Solid

## N[C@@H](CO)C(=O)O.O=C1O[C@H]([C@@H](O)CO)C(O)=C1O [Formulation 253]
[1]
  state at 25° C.: Solid

## N[C@@H](CO)C(=O)O.O=C1O[C@H]([C@H](O)CO)C(O)=C1O [Formulation 254]
[1]
  state at 25° C.: Solid

## C[C@@H](O)[C@H](N)C(=O)O.O=CO [Formulation 255]
[1]
  state at 25° C.: Solid

## CC(=O)O.C[C@@H](O)[C@H](N)C(=O)O [Formulation 256]
[1]
  state at 25° C.: Solid

## CCC(=O)O.C[C@@H](O)[C@H](N)C(=O)O [Formulation 257]
[1]
  state at 25° C.: Solid

## CCCCCC(=O)O.C[C@@H](O)[C@H](N)C(=O)O [Formulation 258]
[1]
  state at 25° C.: Solid

## CCCC(=O)O.C[C@@H](O)[C@H](N)C(=O)O [Formulation 259]
[1]
  state at 25° C.: Solid

## C[C@@H](O)[C@H](N)C(=O)O.O=C(O)[C@H](O)[C@@H](O)[C@H](O)[C@H](O)CO [Formulation 260]
[1]
  state at 25° C.: Solid

## CC(O)C(=O)O.C[C@@H](O)[C@H](N)C(=O)O [Formulation 261]
[1]
  state at 25° C.: Solid

## C[C@@H](O)[C@H](N)C(=O)O.O=C(O)CCCCC(=O)O [Formulation 262]
[1]
  state at 25° C.: Solid

## C[C@@H](O)[C@H](N)C(=O)O.O=C(O)CCC(=O)O [Formulation 263]
[1]
  state at 25° C.: Solid

## C[C@@H](O)[C@H](N)C(=O)O.N[C@@H](CCC(=O)O)C(=O)O [Formulation 264]
[1]
  state at 25° C.: Solid

## C[C@@H](O)[C@H](N)C(=O)O.O=C(O)/C=C/C(=O)O [Formulation 265]
[1]
  state at 25° C.: Solid

## C[C@@H](O)[C@H](N)C(=O)O.O=C(O)C[C@H](O)C(=O)O [Formulation 266]
[1]
  state at 25° C.: Solid

## C[C@@H](O)[C@H](N)C(=O)O.O=C(O)CC(O)(CC(=O)O)C(=O)O [Formulation 267]
[1]
  state at 25° C.: Solid

## C[C@@H](O)[C@H](N)C(=O)O.O=C(O)C(O)C(O)C(=O)O (stereo not shown) [Formulation 268]
[1]
  state at 25° C.: Solid

## C[C@@H](O)[C@H](N)C(=O)O.O=C(O)c1ccccc1 [Formulation 269]
[1]
  state at 25° C.: Solid

## C[C@@H](O)[C@H](N)C(=O)O.O=C1O[C@H]([C@@H](O)CO)C(O)=C1O [Formulation 270]
[1]
  state at 25° C.: Solid

## C[C@@H](O)[C@H](N)C(=O)O.O=C1O[C@H]([C@H](O)CO)C(O)=C1O [Formulation 271]
[1]
  state at 25° C.: Solid

## N[C@@H](CS)C(=O)O.O=CO [Formulation 306]
[2]
  state at 25° C.: Solid

## CC(=O)O.N[C@@H](CS)C(=O)O [Formulation 307]
[2]
  state at 25° C.: Solid

## CCC(=O)O.N[C@@H](CS)C(=O)O [Formulation 308]
[2]
  state at 25° C.: Solid

## CCCCCC(=O)O.N[C@@H](CS)C(=O)O [Formulation 309]
[2]
  state at 25° C.: Solid

## CCCC(=O)O.N[C@@H](CS)C(=O)O [Formulation 310]
[2]
  state at 25° C.: Solid

## N[C@@H](CS)C(=O)O.O=C(O)[C@H](O)[C@@H](O)[C@H](O)[C@H](O)CO [Formulation 311]
[2]
  state at 25° C.: Solid

## CC(O)C(=O)O.N[C@@H](CS)C(=O)O [Formulation 312]
[2]
  state at 25° C.: Solid

## N[C@@H](CS)C(=O)O.O=C(O)CCCCC(=O)O [Formulation 313]
[2]
  state at 25° C.: Solid

## N[C@@H](CS)C(=O)O.O=C(O)CCC(=O)O [Formulation 314]
[2]
  state at 25° C.: Solid

## N[C@@H](CCC(=O)O)C(=O)O.N[C@@H](CS)C(=O)O [Formulation 315]
[2]
  state at 25° C.: Solid
